Data: patent US20230087342A1, “AZEPANE DERIVATIVE” (Nippon Chemiphar Co., Ltd., priority 2019, published 2023)

Each compound was assayed against T1, human κ opioid receptors (Homo sapiens, UniProt P41145) (assay: Opioid receptor function test (Lance Ultra cAMP kit, agonist activity)). Conditions: CHO cells expressing human κ opioid receptors, 10 μM forskolin, 30 minutes.
T1 construct: host or cells: CHO cells
Type: cell-based
Protocol: Opioid Receptor Function Test
The function activity of the compound of the present invention on κ opioid receptors was examined.
Method: Using a Lance Ultra cAMP kit (Perkin Elmer), the examination was performed according to a predetermined method. In evaluation of agonist activity, CHO cells expressing human κ opioid receptors (Catalog No. CT6606, accession No. NM_000912) and a test compound were reacted in an assay buffer (1×HSS, 5 mM HEPES, pH 7.4, 0.5 mM IBMX (isobutylmethyixanthine), 0.1% SA) in the presence of 10 μM forskolin for 30 minutes. Subsequently, a cAMP detection reagent in the kit was added. One hour later, time-resolved fluorescence measurement was performed using an EnVision plate reader (Perkin Elmer). The evaluation of the test compound was performed in a concentration range of 10^−14 to 10^−7 M for the κ opioid receptor function test.

T1 sequence (P41145 whole entry): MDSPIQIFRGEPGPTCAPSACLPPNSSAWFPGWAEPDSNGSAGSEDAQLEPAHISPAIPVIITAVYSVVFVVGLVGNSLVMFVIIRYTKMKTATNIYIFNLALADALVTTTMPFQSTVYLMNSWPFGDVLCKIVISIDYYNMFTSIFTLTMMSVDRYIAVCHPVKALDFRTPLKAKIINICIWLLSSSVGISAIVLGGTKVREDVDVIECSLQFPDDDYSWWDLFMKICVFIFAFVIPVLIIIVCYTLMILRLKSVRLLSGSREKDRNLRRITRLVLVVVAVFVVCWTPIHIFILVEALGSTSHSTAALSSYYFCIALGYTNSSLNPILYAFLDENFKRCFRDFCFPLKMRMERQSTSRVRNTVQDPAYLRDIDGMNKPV

| Compound | EC50 |
| --- | --- |
| Oc1ccc2c(c1)[C@@]13CCN(CCc4ncccc4F)CC[C@@]1(O)[C@@H](C2)N(CC1CC1)CC3 [Example 100, (5aS,6R,11bS)-14-(cyclopropylmethyl)-3-(2-(3-fluoropyridin-2-yl)ethyl)-2,3,4,5,6,7-hexahydro-6,11b-(epiminoethano)naphtho[1,2-d]azepine-5a,10(1H)-diol] | 0.26 nM |
| Cc1cccnc1CCN1CC[C@]23CCN(CC4CC4)[C@H](Cc4ccc(O)cc42)[C@]3(O)CC1 [Example 102, (5aS,6R,11bS)-14-(cyclopropylmethyl)-3-(2-(3-methylpyridin-2-yl)ethyl)-2,3,4,5,6,7-hexahydro-6,11b-(epiminoethano)naphtho[1,2-d]azepine-5a,10(1H)-diol] | 0.13 nM |
| Cc1ccnc(CCN2CC[C@]34CCN(CC5CC5)[C@H](Cc5ccc(O)cc53)[C@]4(O)CC2)c1 [Example 105, (5aS,6R,11bS)-14-(cyclopropylmethyl)-3-(2-(4-methylpyridin-2-yl)ethyl)-2,3,4,5,6,7-hexahydro-6,11b-(epiminoethano)naphtho[1,2-d]azepine-5a,10(1H)-diol] | 0.088 nM |
| Oc1ccc2c(c1)[C@@]13CCN(CC4(c5ccccn5)CC4)CC[C@@]1(O)[C@@H](C2)N(CC1CC1)CC3 [Example 108, (5aS,6R,11bS)-14-(cyclopropylmethyl)-3-((1-(pyridin-2-yl)cyclopropyl)methyl)-2,3,4,5,6,7-hexahydro-6,11b-(epiminoethano)naphtho[1,2-d]azepine-5a,10(1H)-diol] | 0.066 nM |
| Oc1ccc2c(c1)[C@@]13CCN(CCc4n[nH]c5ccccc45)CC[C@@]1(O)[C@@H](C2)N(CC1CC1)CC3 [Example 112, (5aS,6R,11bS)-3-(2-(1H-indazol-3-yl)ethyl)-14-(cyclopropylmethyl)-2,3,4,5,6,7-hexahydro-6,11b-(epiminoethano)naphtho[1,2-d]azepine-5a,10(1H)-diol] | 0.037 nM |
| Cn1nc(CCN2CC[C@]34CCN(CC5CC5)[C@H](Cc5ccc(O)cc53)[C@]4(O)CC2)c2ccccc21 [Example 113, (5aS,6R,11bS)-14-(cyclopropylmethyl)-3-(2-(1-methyl-1H-indazol-3-yl)ethyl)-2,3,4,5,6,7-hexahydro-6,11b-(epiminoethano)naphtho[1,2-d]azepine-5a,10(1H)-diol] | 0.56 nM |
| O=C(Cc1n[nH]c2ccccc12)N1CC[C@]23CCN(CC4CC4)[C@H](Cc4ccc(O)cc42)[C@]3(O)CC1 [Example 114, 1-((5aS,6R,11bR)-14-(cyclopropylmethyl)-5a,10-dihydroxy-1,2,5,5a,6,7-hexahydro-6,11b-(epiminoethano)naphtho[1,2-d]azepin-3(4H)-yl)-2-(1H-indazol-3-yl)ethan-1-one] | 0.043 nM |
| O=C(Cc1cn2ccccc2n1)N1CC[C@]23CCN(CC4CC4)[C@H](Cc4ccc(O)cc42)[C@]3(O)CC1 [Example 115, 1-((5aS,6R,11bR)-14-(cyclopropylmethyl)-5a,10-dihydroxy-1,2,5,5a,6,7-hexahydro-6,11b-(epiminoethano)naphtho[1,2-d]azepin-3(4H)-yl)-2-(imidazo[1,2-a]pyridin-2-yl)ethan-1-one] | 0.15 nM |
| Oc1ccc2c(c1)[C@@]13CCN(CCc4cn5ccccc5n4)CC[C@@]1(O)[C@@H](C2)N(CC1CC1)CC3 [Example 116, (5aS,6R,11bS)-14-(cyclopropylmethyl)-3-(2-(imidazo[1,2-a]pyridin-2-yl)ethyl)-2,3,4,5,6,7-hexahydro-6,11b-(epiminoethano)naphtho[1,2-d]azepine-5a,10(1H)-diol] | 0.021 nM |
| O=C(Cc1cc2ccccn2n1)N1CC[C@]23CCN(CC4CC4)[C@H](Cc4ccc(O)cc42)[C@]3(O)CC1 [Example 117, 1-((5aS,6R,11bR)-14-(cyclopropylmethyl)-5a,10-dihydroxy-1,2,5,5a,6,7-hexahydro-6,11b-(epiminoethano)naphtho[1,2-d]azepin-3(4H)-yl)-2-(pyrazolo[1,5-a]pyridin-2-yl)ethan-1-one] | 0.4 nM |
| Oc1ccc2c(c1)[C@@]13CCN(CCc4cc5ccccn5n4)CC[C@@]1(O)[C@@H](C2)N(CC1CC1)CC3 [Example 118, (5aS,6R,11bS)-14-(cyclopropylmethyl)-3-(2-(pyrazolo[1,5-a]pyridin-2-yl)ethyl)-2,3,4,5,6,7-hexahydro-6,11b-(epiminoethano)naphtho[1,2-d]azepine-5a,10(1H)-diol] | 0.016 nM |
| Oc1ccc2c(c1)[C@@]13CCN(CCn4cc5ccccc5n4)CC[C@@]1(O)[C@@H](C2)N(CC1CC1)CC3 [Example 120, (5aS,6R,11bS)-3-(2-(2H-indazol-2-yl)ethyl)-14-(cyclopropylmethyl)-2,3,4,5,6,7-hexahydro-6,11b-(epiminoethano)naphtho[1,2-d]azepine-5a,10(1H)-diol] | 0.053 nM |
| Oc1ccc2c(c1)[C@@]13CCN(CCn4ncc5ccccc54)CC[C@@]1(O)[C@@H](C2)N(CC1CC1)CC3 [Example 122, (5aS,6R,11bS)-3-(2-(1H-indazol-1-yl)ethyl)-14-(cyclopropylmethyl)-2,3,4,5,6,7-hexahydro-6,11b-(epiminoethano)naphtho[1,2-d]azepine-5a,10(1H)-diol] | 0.15 nM |
| Oc1ccc2c(c1)[C@@]13CCN(CCc4cc5ccccc5cn4)CC[C@@]1(O)[C@@H](C2)N(CC1CC1)CC3 [Example 123, (5aS,6R,11bS)-14-(cyclopropylmethyl)-3-(2-(isoquinolin-3-yl)ethyl)-2,3,4,5,6,7-hexahydro-6,11b-(epiminoethano)naphtho[1,2-d]azepine-5a,10(1H)-diol] | 0.064 nM |
| Oc1ccc2c(c1)[C@@]13CCN(CCN4CCc5ccccc54)CC[C@@]1(O)[C@@H](C2)N(CC1CC1)CC3 [Example 126, (5aS,6R,11bS)-14-(cyclopropylmethyl)-3-(2-(indolin-1-yl)ethyl)-2,3,4,5,6,7-hexahydro-6,11b-(epiminoethano)naphtho[1,2-d]azepine-5a,10(1H)-diol] | 0.74 nM |
| Oc1ccc2c(c1)[C@@]13CCN(CCc4nc5ccccc5s4)CC[C@@]1(O)[C@@H](C2)N(CC1CC1)CC3 [Example 128, (5aS,6R,11bS)-3-(2-(benzo[d]thiazol-2-yl)ethyl)-14-(cyclopropylmethyl)-2,3,4,5,6,7-hexahydro-6,11b-(epiminoethano)naphtho[1,2-d]azepine-5a,10(1H)-diol] | 0.1 nM |
| Oc1ccc2c(c1)[C@@]13CCN(CCN4CCCCC4)CC[C@@]1(O)[C@@H](C2)N(CC1CC1)CC3 [Example 130, (5aS,6R,11bS)-14-(cyclopropylmethyl)-3-(2-(piperidin-1-yl)ethyl)-2,3,4,5,6,7-hexahydro-6,11b-(epiminoethano)naphtho[1,2-d]azepine-5a,10(1H)-diol] | 0.36 nM |
| C[Si]1(C)CCN(CC(=O)N2CC[C@]34CCN(CC5CC5)[C@H](Cc5ccc(O)cc53)[C@]4(O)CC2)CC1 [Example 132, 1-((5aS,6R,11bR)-14-(cyclopropylmethyl)-5a,10-dihydroxy-1,2,5,5a,6,7-hexahydro-6,11b-(epiminoethano)naphtho[1,2-d]azepin-3(4H)-yl)-2-(4,4-dimethyl-1,4-azasilinan-1-yl)ethan-1-one] | 0.16 nM |
| C[Si]1(C)CCN(CCN2CC[C@]34CCN(CC5CC5)[C@H](Cc5ccc(O)cc53)[C@]4(O)CC2)CC1 [Example 133, (5aS,6R,11bS)-14-(cyclopropylmethyl)-3-(2-(4,4-dimethyl-1,4-azasilinan-1-yl)ethyl)-2,3,4,5,6,7-hexahydro-6,11b-(epiminoethano)naphtho[1,2-d]azepine-5a,10(1H)-diol] | 0.033 nM |
| Oc1ccc2c(c1)[C@]13CCN(CC4CC4)[C@H](C2)[C@]1(O)CCCN(CCc1ccccn1)C3 [Example 137, (5aS,6R,11bS)-14-(cyclopropylmethyl)-2-(2-(pyridin-2-yl)ethyl)-2,3,4,5,6,7-hexahydro-6,11b-(epiminoethano)naphtho[1,2-c]azepine-5a,10(1H)-diol] | 0.14 nM |
| O=C(Cn1cc(C(F)(F)F)cn1)N1CC[C@]23CCN(CC4CC4)[C@H](Cc4ccc(O)cc42)[C@]3(O)CC1 [Example 143, 1-((5aS,6R,11bR)-14-(cyclopropylmethyl)-5a,10-dihydroxy-1,2,5,5a,6,7-hexahydro-6,11b-(epiminoethano)naphtho[1,2-d]azepin-3(4H)-yl)-2-(4-(trifluoromethyl)-1H-pyrazol-1-yl)ethan-1-one] | 0.033 nM |
| Oc1ccc2c(c1)[C@@]13CCN(CCn4cc(C(F)(F)F)cn4)CC[C@@]1(O)[C@@H](C2)N(CC1CC1)CC3 [Example 144, (5aS,6R,11bS)-14-(cyclopropylmethyl)-3-(2-(4-(trifluoromethyl)-1H-pyrazol-1-yl)ethyl)-2,3,4,5,6,7-hexahydro-6,11b-(epiminoethano)naphtho[1,2-d]azepine-5a,10(1H)-diol] | 0.019 nM |
| CC(C)(C)c1cnn(CCN2CC[C@]34CCN(CC5CC5)[C@H](Cc5ccc(O)cc53)[C@]4(O)CC2)c1 [Example 149, (5aS,6R,11bS)-3-(2-(4-(tert-butyl)-1H-pyrazol-1-yl)ethyl)-14-(cyclopropylmethyl)-2,3,4,5,6,7-hexahydro-6,11b-(epiminoethano)naphtho[1,2-d]azepine-5a,10(1H)-diol] | 0.023 nM |
| CCCN1CC[C@]23CCN(CCc4ccccn4)CC[C@@]2(O)[C@H]1Cc1ccc(O)cc13 [Example 159, (5aS,6R,11bS)-14-propyl-3-(2-(pyridin-2-yl)ethyl)-2,3,4,5,6,7-hexahydro-6,11b-(epiminoethano)naphtho[1,2-d]azepine-5a,10(1H)-diol] | 0.77 nM |
